This passage reports IC50 results from patent publication US12371454B2, “Cyclic peptide compound having Kras inhibitory action” (priority 2019, dated 2025).

This assay deals with Human pancreatic cancer cell line AsPC-1. Description: Measurement of AsPC-1 cell growth inhibition (AsPC-1 CGI). It counts as cell-based. Conditions: 96 h. The method in brief:
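AsPC-1 cells in 15% FBS RPMI-1640 were exposed to test compound for 96 hours at 37° C, with CellTiter-Glo as endpoint.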

Positions of bridges follow the written chain, without caps; N, C: chain ends. Non-standard residues stand in square brackets, D forms with d. Residues, ends and D or L forms follow the SMILES beside them. *: point of attachment. hPhe(3,5-F2-4-CF3) = N[C@@H](CCc1cc(F)c(C(F)(F)F)c(F)c1)C(=O)O; hPhe(3-Cl-4-CF3) = N[C@@H](CCc1ccc(C(F)(F)F)c(Cl)c1)C(=O)O; hPhe(3-F,4-CF3) = N[C@@H](CCc1ccc(C(F)(F)F)c(F)c1)C(=O)O; 3Oxa8azabicyclo(3.2.1)octane = C1CC2COCC1N2*; NEtPhe(4-Me) = CCN[C@@H](Cc1ccc(C)cc1)C(=O)O; NMePhe(4-Me) = CN[C@@H](Cc1ccc(C)cc1)C(=O)O; NMeAla(cPent) = CN[C@@H](CC1CCCC1)C(=O)O; NMeGly(cPent) = CN[C@H](C(=O)O)C1CCCC1; NMeCha = CN[C@@H](CC1CCCCC1)C(=O)O; NMehLeu = CN[C@@H](CCC(C)C)C(=O)O; NEtLeu = CCN[C@@H](CC(C)C)C(=O)O; NMeI = CC[C@H](C)[C@H](NC)C(=O)O; Piperidide(4-Me) = CC1CCN(*)CC1; NMeD = CN[C@@H](CC(=O)O)C(=O)O; NMeL = CN[C@@H](CC(C)C)C(=O)O; NMeV = CN[C@H](C(=O)O)C(C)C; d(β3hA) = C[C@@H](N)CC(=O)O; Azetidin(1-yl) = C1CN(*)C1; NMeS = CN[C@@H](CO)C(=O)O; Morpholide = C1CN(*)CCO1; NMeA = CN[C@@H](C)C(=O)O; Piperidide = C1CCN(*)CC1; Ac5c = NC1(C(=O)O)CCCC1; Aze = O=C(O)[C@@H]1CCN1; NEtG = CCNCC(=O)O; Sar = CNCC(=O)O; Propyl = CCC*

`CC[C@H](C)[C@@H]1NC(=O)[C@H](CC(C)C)N(C)C(=O)C[C@@H](C(=O)N2C3CCC2COC3)N(C)C(=O)[C@H](C2CCCC2)N(C)C(=O)C2(CCCC2)NC(=O)[C@@H]2CCCN2C(=O)[C@H](CCc2ccc(C(F)(F)F)c(Cl)c2)NC(=O)CN(C)C(=O)[C@H](Cc2ccc(C)cc2)N(CC)C(=O)[C@@H]2CCN2C(=O)[C@H](C)N(C)C1=O` [Compound 1236] ([NMeL]I[NMeA][Aze][NEtPhe(4-Me)][Sar][hPhe(3-Cl-4-CF3)]P[Ac5c][NMeGly(cPent)][NMeD]-{3Oxa8azabicyclo(3.2.1)octane}; lactam N-11): the IC50 – broadly, the concentration that gives 50% inhibition – was in the range of 0.02 to 0.05 µM.
The value for `CCCOC[C@H]1C(=O)N(C)CC(=O)N[C@@H](CCc2ccc(C(F)(F)F)c(Cl)c2)C(=O)N2CCC[C@H]2C(=O)NC2(CCCC2)C(=O)N(C)[C@@H](C2CCCC2)C(=O)N(C)[C@H](C(=O)N2C3CCC2COC3)CC(=O)N(C)[C@@H](CC2CCCC2)C(=O)N[C@@H]([C@@H](C)CC)C(=O)N(C)[C@@H](C)C(=O)N2CC[C@H]2C(=O)N1C` [Compound 1251] ([NMeAla(cPent)]I[NMeA][Aze][NMeS](Propyl)[Sar][hPhe(3-Cl-4-CF3)]P[Ac5c][NMeGly(cPent)][NMeD]-{3Oxa8azabicyclo(3.2.1)octane}; lactam N-11) was 0.02 to 0.05 µM.
The value for `CC[C@H](C)[C@@H]1NC(=O)[C@H](CC(C)C)N(CC)C(=O)C[C@@H](C(=O)N2CCC2)N(C)C(=O)[C@H](C2CCCC2)N(C)C(=O)C2(CCCC2)NC(=O)[C@@H]2CCCN2C(=O)[C@H](CCc2ccc(C(F)(F)F)c(Cl)c2)NC(=O)CN(C)C(=O)[C@H](CC2CCCCC2)N(C)C(=O)[C@@H]2CCN2C(=O)[C@H](C)NC1=O` [Compound 1262] ([NEtLeu]IA[Aze][NMeCha][Sar][hPhe(3-Cl-4-CF3)]P[Ac5c][NMeGly(cPent)][NMeD]-{Azetidin(1-yl)}; lactam N-11) was 0.1 to 0.5 µM; that for `CC[C@H](C)[C@@H]1NC(=O)[C@H](CC(C)C)N(CC)C(=O)C[C@@H](C(=O)N2CCOCC2)N(C)C(=O)[C@H](C2CCCC2)N(C)C(=O)C2(CCCC2)NC(=O)[C@@H]2CCCN2C(=O)[C@H](CCc2ccc(C(F)(F)F)c(Cl)c2)NC(=O)CN(C)C(=O)[C@H](CC2CCCCC2)N(C)C(=O)[C@@H]2CCN2C(=O)[C@H](C)NC1=O` [Compound 1266] ([NEtLeu]IA[Aze][NMeCha][Sar][hPhe(3-Cl-4-CF3)]P[Ac5c][NMeGly(cPent)][NMeD]-Morpholide; lactam N-11) was 0.1 to 0.5 µM; that for `CC[C@H](C)[C@@H]1NC(=O)[C@H](CC(C)C)N(CC)C(=O)C[C@@H](C(=O)N(C)C)N(C)C(=O)[C@H]([C@@H](C)CC)N(C)C(=O)C2(CCCC2)NC(=O)[C@@H]2CCCN2C(=O)[C@H](CCc2ccc(C(F)(F)F)c(Cl)c2)NC(=O)CN(C)C(=O)[C@H](Cc2ccc(C)cc2)N(C)C(=O)[C@@H]2CCN2C(=O)[C@H](C)NC1=O` [Compound 1287] ([NEtLeu]IA[Aze][NMePhe(4-Me)][Sar][hPhe(3-Cl-4-CF3)]P[Ac5c][NMeI][NMeD]-NMe2; lactam N-11) was 0.02 to 0.05 µM.
Consider `CC[C@H](C)[C@@H]1NC(=O)[C@H](CC(C)C)N(C)C(=O)C[C@@H](C(=O)N2CCC(C)CC2)N(C)C(=O)[C@H](C(C)C)N(C)C(=O)C2(CCCC2)NC(=O)[C@@H]2CCCN2C(=O)[C@H](CCc2ccc(C(F)(F)F)c(Cl)c2)NC(=O)CN(C)C(=O)[C@H](CC2CCCCC2)N(C)C(=O)[C@@H]2CCN2C(=O)[C@H](C)N(C)C1=O` [Compound 1291] ([NMeL]I[NMeA][Aze][NMeCha][Sar][hPhe(3-Cl-4-CF3)]P[Ac5c][NMeV][NMeD]-{Piperidide(4-Me)}; lactam N-11), for which the IC50 is 0.1 to 0.5 µM.
`CC[C@H](C)[C@@H]1NC(=O)[C@H](CCC(C)C)N(C)C(=O)C[C@@H](C(=O)N(C)C)N(C)C(=O)[C@H](C2CCCC2)N(C)C(=O)C2(CCCC2)NC(=O)[C@@H]2CCCN2C(=O)[C@H](CCc2ccc(C(F)(F)F)c(F)c2)NC(=O)CN(C)C(=O)[C@H](CC2CCCCC2)N(C)C(=O)[C@@H]2CCN2C(=O)[C@H](C)NC1=O` [Compound 1292] ([NMehLeu]IA[Aze][NMeCha][Sar][hPhe(3-F,4-CF3)]P[Ac5c][NMeGly(cPent)][NMeD]-NMe2; lactam N-11) came in with an IC50 of 0.02 to 0.05 µM.
The value for `CCCOC[C@H]1C(=O)N(C)CC(=O)N[C@@H](CCc2ccc(C(F)(F)F)c(Cl)c2)C(=O)N2CCC[C@H]2C(=O)NC2(CCCC2)C(=O)N(C)[C@@H](C2CCCC2)C(=O)N(C)[C@H](C(=O)N2C3CCC2COC3)CC(=O)N(C)[C@@H](CC(C)C)C(=O)N[C@@H]([C@@H](C)CC)C(=O)N[C@@H](C)C(=O)N2CC[C@H]2C(=O)N1C` [Compound 1299] ([NMeL]IA[Aze][NMeS](Propyl)[Sar][hPhe(3-Cl-4-CF3)]P[Ac5c][NMeGly(cPent)][NMeD]-{3Oxa8azabicyclo(3.2.1)octane}; lactam N-11) was 0.02 to 0.05 µM.
`CC[C@H](C)[C@@H]1NC(=O)[C@H](CC(C)C)N(C)C(=O)C[C@@H](C(=O)N2CCOCC2)N(C)C(=O)[C@H](C2CCCC2)N(C)C(=O)C2(CCCC2)NC(=O)[C@@H]2CCCN2C(=O)[C@H](CCc2ccc(C(F)(F)F)c(Cl)c2)NC(=O)CN(C)C(=O)[C@H](C2CCCC2)N(C)C(=O)[C@@H]2CCN2C(=O)[C@H](C)NC1=O` [Compound 1309] ([NMeL]IA[Aze][NMeGly(cPent)][Sar][hPhe(3-Cl-4-CF3)]P[Ac5c][NMeGly(cPent)][NMeD]-Morpholide; lactam N-11): the IC50 lay within 0.05 to 0.1 µM.
The value for `CCCOC[C@H]1C(=O)N(C)CC(=O)N[C@@H](CCc2ccc(C(F)(F)F)c(Cl)c2)C(=O)N2CCC[C@H]2C(=O)NC2(CCCC2)C(=O)N(C)[C@@H](C2CCCC2)C(=O)N(C)[C@H](C(=O)N2C3CCC2COC3)CC(=O)N(C)[C@@H](CCC(C)C)C(=O)N[C@@H]([C@@H](C)CC)C(=O)N[C@@H](C)C(=O)N2CC[C@H]2C(=O)N1C` [Compound 1326] ([NMehLeu]IA[Aze][NMeS](Propyl)[Sar][hPhe(3-Cl-4-CF3)]P[Ac5c][NMeGly(cPent)][NMeD]-{3Oxa8azabicyclo(3.2.1)octane}; lactam N-11) was 0.02 to 0.05 µM.
Under `CC[C@H](C)[C@@H]1NC(=O)[C@H](CC(C)C)N(C)C(=O)C[C@@H](C)NC(=O)[C@H](C2CCCC2)N(C)C(=O)C2(CCCC2)NC(=O)[C@@H]2CCCN2C(=O)[C@H](CCc2ccc(C(F)(F)F)c(Cl)c2)NC(=O)CN(C)C(=O)[C@H](Cc2ccc(C)cc2)N(C)C(=O)[C@@H]2CCN2C(=O)[C@H](C)NC1=O` [Compound 1331] (cyclo(A[Aze][NMePhe(4-Me)][Sar][hPhe(3-Cl-4-CF3)]P[Ac5c][NMeGly(cPent)][d(β3hA)][NMeL]I)) stands 0.05 to 0.1 µM; under `CC[C@H](C)[C@@H]1NC(=O)[C@H](CC(C)C)N(C)C(=O)C[C@@H](C(=O)N2CCCCC2)N(C)C(=O)[C@H](C(C)C)N(C)C(=O)C2(CCCC2)NC(=O)[C@@H]2CCCN2C(=O)[C@H](CCc2ccc(C(F)(F)F)c(Cl)c2)NC(=O)CN(C)C(=O)[C@H](CC2CCCCC2)N(C)C(=O)[C@@H]2CCN2C(=O)[C@H](C)NC1=O` [Compound 1334] ([NMeL]IA[Aze][NMeCha][Sar][hPhe(3-Cl-4-CF3)]P[Ac5c][NMeV][NMeD]-Piperidide; lactam N-11), 0.1 to 0.5 µM.
Under `CCCOC[C@H]1C(=O)N(CC)CC(=O)N[C@@H](CCc2ccc(C(F)(F)F)c(Cl)c2)C(=O)N2CCC[C@H]2C(=O)NC2(CCCC2)C(=O)N(C)[C@@H](C2CCCC2)C(=O)N(C)[C@H](C(=O)N2C3CCC2COC3)CC(=O)N(C)[C@@H](CC(C)C)C(=O)N[C@@H]([C@@H](C)CC)C(=O)N(C)[C@@H](C)C(=O)N2CC[C@H]2C(=O)N1C` [Compound 1338] ([NMeL]I[NMeA][Aze][NMeS](Propyl)[NEtG][hPhe(3-Cl-4-CF3)]P[Ac5c][NMeGly(cPent)][NMeD]-{3Oxa8azabicyclo(3.2.1)octane}; lactam N-11) stands 0.05 to 0.1 µM.
`CC[C@H](C)[C@@H]1NC(=O)[C@H](CC2CCCC2)N(C)C(=O)C[C@@H](C(=O)N(C)C)N(C)C(=O)[C@H](C2CCCC2)N(C)C(=O)C2(CCCC2)NC(=O)[C@@H]2CCCN2C(=O)[C@H](CCc2ccc(C(F)(F)F)c(F)c2)NC(=O)CN(C)C(=O)[C@H](CC2CCCCC2)N(C)C(=O)[C@@H]2CCN2C(=O)[C@H](C)NC1=O` [Compound 1340] ([NMeAla(cPent)]IA[Aze][NMeCha][Sar][hPhe(3-F,4-CF3)]P[Ac5c][NMeGly(cPent)][NMeD]-NMe2; lactam N-11) came in with an IC50 of 0.02 to 0.05 µM.
As for `CC[C@H](C)[C@@H]1NC(=O)[C@H](CC(C)C)N(C)C(=O)C[C@@H](C(=O)N2CCCCC2)NC(=O)[C@H](C(C)C)N(C)C(=O)C2(CCCC2)NC(=O)[C@@H]2CCCN2C(=O)[C@H](CCc2ccc(C(F)(F)F)c(Cl)c2)NC(=O)CN(C)C(=O)[C@H](CC2CCCCC2)N(C)C(=O)[C@@H]2CCN2C(=O)[C@H](C)N(C)C1=O` [Compound 1353] ([NMeL]I[NMeA][Aze][NMeCha][Sar][hPhe(3-Cl-4-CF3)]P[Ac5c][NMeV]D-Piperidide; lactam N-11), the half-maximal inhibitory concentration (IC50) fell in the range of 0.1 to 0.5 µM.
The compound `CCCOC[C@H]1C(=O)N(C)CC(=O)N[C@@H](CCc2cc(F)c(C(F)(F)F)c(F)c2)C(=O)N2CCC[C@H]2C(=O)NC2(CCCC2)C(=O)N(C)[C@@H](C2CCCC2)C(=O)N(C)[C@H](C(=O)N2C3CCC2COC3)CC(=O)N(C)[C@@H](CC(C)C)C(=O)N[C@@H]([C@@H](C)CC)C(=O)N(C)[C@@H](C)C(=O)N2CC[C@H]2C(=O)N1C` [Compound 1355] ([NMeL]I[NMeA][Aze][NMeS](Propyl)[Sar][hPhe(3,5-F2-4-CF3)]P[Ac5c][NMeGly(cPent)][NMeD]-{3Oxa8azabicyclo(3.2.1)octane}; lactam N-11) displayed an IC50 of 0.02 to 0.05 µM.
In the case of `CCCOC[C@H]1C(=O)N(C)CC(=O)N[C@@H](CCc2ccc(C(F)(F)F)c(Cl)c2)C(=O)N2CCC[C@H]2C(=O)NC2(CCCC2)C(=O)N(C)[C@@H](C2CCCC2)C(=O)N(C)[C@H](C(=O)N2C3CCC2COC3)CC(=O)N(C)[C@@H](CC2CCCC2)C(=O)N[C@@H]([C@@H](C)CC)C(=O)N[C@@H](C)C(=O)N2CC[C@H]2C(=O)N1C` [Compound 1359] ([NMeAla(cPent)]IA[Aze][NMeS](Propyl)[Sar][hPhe(3-Cl-4-CF3)]P[Ac5c][NMeGly(cPent)][NMeD]-{3Oxa8azabicyclo(3.2.1)octane}; lactam N-11), the half-maximal inhibitory concentration (IC50) fell in the range of 0.05 to 0.1 µM.
